The record followed here is ChEMBL document CHEMBL1146493, “Effect of phenolic glycosides on Agrobacterium tumefaciens virH gene induction and plant transformation” (J Nat Prod, 2004).

Data set [1] relates to Agrobacterium tumefaciens. In words: Inhibition of virH gene expression in Agrobacterium tumefaciens A348 overexpressing pSM219 virH::lacZ assessed as beta-galactosidase activity at 100 uM after 18 hrs. The class given is functional, organism-based.
The subject of data set [2] is Agrobacterium tumefaciens. In words: Induction of virH gene expression in Agrobacterium tumefaciens A348 overexpressing pSM219 virH::lacZ assessed as beta-galactosidase activity at 10 mM after 18 hrs relative to acetosyringone. The class given is functional, organism-based.
Data set [3] deals with Nicotiana tabacum. In words: Increase in genetic transformation in tobacco leaf explant co-cultured with Agrobacterium tumefaciens A348 assessed as callus formation at 100 uM after 4 weeks. The class given is functional.
Data set [4] concerns Nicotiana tabacum. In words: Increase in genetic transformation in tobacco leaf explant co-cultured with Agrobacterium tumefaciens A348 assessed as buds formation at 100 uM after 4 weeks. Type of data set: functional.
Data set [5] in a line: Toxicity in tobacco leaf explant co-cultured with Agrobacterium tumefaciens A348 assessed as mortality at 2 mM within 3 to 4 days. As to conditions: nicotiana tabacum, 2000 µM.
Data set [6] can be described thus: Toxicity in tobacco leaf explant co-cultured with Agrobacterium tumefaciens A348 assessed as detrimental genetic transformation at 500 uM after 4 weeks. Particulars: nicotiana tabacum, 672 h.
For data set [7], the system named is Nicotiana tabacum. In words: Increase in transformation frequency of tobacco leaf explant co-cultured with Agrobacterium tumefaciens A348 assessed as explant survival at 100 uM after 21 days. Type of data set: functional.
Data set [8] concerns Nicotiana tabacum. In words: Increase in transformation frequency of tobacco leaf explant co-cultured with Agrobacterium tumefaciens A348 assessed as transgenic callus formation at 100 uM after 21 days. The class given is functional.
Data set [9] relates to Agrobacterium tumefaciens. In words: Induction of virH gene expression in Agrobacterium tumefaciens A348 overexpressing pSM219 virH::lacZ assessed as beta-galactosidase activity at 0.5 mM after 18 hrs relative to acetosyringone. The class given is functional.
The test system of data set [10] is Agrobacterium tumefaciens. Kind of data set: Induction of virH gene expression in Agrobacterium tumefaciens A348 overexpressing pSM219 virH::lacZ assessed as beta-galactosidase activity at 1 mM after 18 hrs relative to acetosyringone. The class given is functional.
Data set [11] concerns Agrobacterium tumefaciens. In words: Induction of virH gene expression in Agrobacterium tumefaciens A348 overexpressing pSM219 virH::lacZ assessed as beta-galactosidase activity at 100 uM after 18 hrs. The class given is functional, organism-based.
In data set [12] the test system is Agrobacterium tumefaciens. Kind of data set: Decrease in virH gene expression in Agrobacterium tumefaciens A348 overexpressing pSM219 virH::lacZ assessed as beta-galactosidase activity at >=250 uM after 18 hrs. Type of data set: functional, organism-based.
In data set [13] the test system is Agrobacterium tumefaciens. Kind of data set: Toxicity in Agrobacterium tumefaciens A348 overexpressing pSM219 virH::lacZ assessed as […] at 5 mM after 18 hrs. Type of data set: organism-based. As to conditions: in vivo, 5000 µM.
The nature of data set [14]: Toxicity in tobacco leaf explant co-cultured with Agrobacterium tumefaciens A348 assessed as mortality at 500 uM after 7 days. As to conditions: nicotiana tabacum, 168 h.

Structures are written as SMILES. Calls of active or inactive are those of the source. The rule behind the calls is not given here.

As to `COc1cc(C(C)=O)cc(OC)c1O[C@@H]1O[C@H](CO)[C@@H](O)[C@H](O)[C@H]1O` [GLUCOACETOSYRINGONE], the outcome (in data set [1]; in [2]; in the data set on Nicotiana tabacum [3]; in the data set with Nicotiana tabacum [4]; in the data set on Nicotiana tabacum [7]; in the data set on Nicotiana tabacum [8]) was Active. Further, the Activity result in data set [5] and in data set [6] was “Non-toxic” throughout.
`COc1cc(C(C)=O)cc(OC)c1O[C@@H]1OC[C@@H](O)[C@H](O)[C@H]1O`: the result (in [1]; in the data set with Nicotiana tabacum [3]; in the data set with Nicotiana tabacum [4]; in the data set on Nicotiana tabacum [7]; in the data set with Nicotiana tabacum [8]) was Active. For the same molecule, the Activity is given as 25% in data set [9] and 50% in [10].
Consider `COc1cc(C(=O)/C=C/c2ccc(O)cc2)cc(OC)c1O`, for which the outcome in the data set on Nicotiana tabacum [3] and in the data set on Nicotiana tabacum [4] was Active.
On to `COc1cc(/C=C/C(C)=O)cc(OC)c1O[C@@H]1O[C@H](CO)[C@@H](O)[C@H](O)[C@H]1O`, for which the result (in [1]; in the data set on Nicotiana tabacum [3]; with Nicotiana tabacum [4]) was Active.
In the case of `COc1cc(C(C)=O)cc(OC)c1O` [ACETOSYRINGONE], the outcome (in data set [11]; in data set [12]; in the data set with Nicotiana tabacum [3]; in the data set on Nicotiana tabacum [4]; with Nicotiana tabacum [7]; in the data set with Nicotiana tabacum [8]) was Active. Further, the Activity entry in data set [13], in data set [14], in data set [5] and in data set [6] was “Toxic” throughout.
For the molecule `COc1cc(C(C)=O)cc(OC)c1O[C@H]1O[C@H](CO)[C@@H](O)[C@H](O)[C@H]1O`, the outcome (in [1]; in the data set with Nicotiana tabacum [3]; in the data set with Nicotiana tabacum [4]; in the data set with Nicotiana tabacum [7]; with Nicotiana tabacum [8]) was Active. Further, the Activity in data set [9] is recorded as 25%.
Consider `CC(=O)c1ccc(O[C@@H]2OC[C@@H](O)[C@H](O)[C@H]2O)cc1`, for which, in data set [1], the result was Active.
Consider `COc1cc(/C=C/C(C)=O)cc(OC)c1O`, for which the outcome (in [11]; with Nicotiana tabacum [3]; in the data set on Nicotiana tabacum [4]) was Active.
For `COc1cc(C(=O)/C=C/c2ccc(O)cc2)cc(OC)c1O[C@@H]1O[C@H](CO)[C@@H](O)[C@H](O)[C@H]1O`, the outcome in the data set on Nicotiana tabacum [3] and with Nicotiana tabacum [4] was Active.
On to `COc1cc(C(C)=O)ccc1O[C@@H]1OC[C@@H](O)[C@H](O)[C@H]1O`, for which, in data set [1], the result was Active.
